The source of these data is doi:10.1101/2024.12.09.627564, “Cannabinoid inhibition of mechanosensitive K^+ channels” (bioRxiv, 2024).

Changes are numbered by the printed parent chain.

In one test the test system is GPR55. The arrangement: method as in PMID 17876302, PMID 29669714, PMID 36787750. The following applies: negative modulation of GPR55; cited from earlier work.
The target of a further test is T1, TRAAKG158D (Homo sapiens, UniProt Q9NYG8, G132D).
T1 construct: The transcribed messages encode H. sapiens TRAAK amino acids 1–393; expressed in transfected cells; host or cells: Xenopus laevis oocytes, cRNA injection
T1 sequence (Q9NYG8 1-393 G132D): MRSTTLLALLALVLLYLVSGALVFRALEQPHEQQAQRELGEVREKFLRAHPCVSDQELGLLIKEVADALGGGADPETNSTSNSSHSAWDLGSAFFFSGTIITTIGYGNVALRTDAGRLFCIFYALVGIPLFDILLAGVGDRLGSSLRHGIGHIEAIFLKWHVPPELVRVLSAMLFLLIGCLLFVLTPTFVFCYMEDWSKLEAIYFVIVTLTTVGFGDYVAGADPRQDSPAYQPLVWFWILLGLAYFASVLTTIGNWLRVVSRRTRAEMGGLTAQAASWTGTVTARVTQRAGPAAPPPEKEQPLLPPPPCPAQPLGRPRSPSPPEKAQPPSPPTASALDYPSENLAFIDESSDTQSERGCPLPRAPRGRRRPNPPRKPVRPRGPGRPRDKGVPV
Description: Excised patch recording of TRAAK mutant G158D. The class given is biochemical. An excerpt:
For patch clamp recording from Xenopus oocytes, genes encoding full-length Homo sapiens TRAAK (UniProt Q9NYG8–2), TREK-1 (UniProt O95069), and TREK-2 (UniProt P57789) were codon optimized for eukaryotic expression, synthesized (Genewiz), and cloned into a modified pGEMHE vector using Xho1 and EcoR1 restriction sites. The transcribed messages encode H. sapiens TRAAK amino acids 1–393, TREK-1 amino acids 1–426, or TREK-2 amino acids 1–538 with an additional three amino acids (SNS) at the C terminus. TRAAK mutants were introduced by polymerase chain reaction (PCR). Linearized DNA was transcribed in vitro using T7 polymerase. Complementary RNA (0.1 to 10 ng for TRAAK, TREK-1, TREK-2, and mutants) in 50 nL H2O was injected into Xenopus laevis oocytes extracted from anesthetized frogs. Currents were recorded at 25 °C from inside-out patches excised from oocytes 1 to 5 d after RNA injection. The pipette solution contained 15 mM KCl, 135 mM NaCl, 2 mM MgCl2, and 10 mM HEPES (pH = 7.4 with KOH) and the bath solution contained 150 mM KCl and 10 mM HEPES (pH = 7.1 with KOH). Borosilicate glass pipettes were pulled to 2–5 MΩ resistance.
Patches were evaluated with voltage-step protocols to confirm TRAAK expression and minimal non-specific leak based on reversal potential. Currents were recorded using an Axopatch 200B amplifier (Molecular Devices) at a bandwidth of 1 kHz and digitized with an Digidata 1550B (Molecular Devices) at 100–500 kHz using pClamp10.7 software. Pressure was applied with a second-generation high-speed pressure clamp device (HSPC-2-SB, ALA Scientific Instruments). Aggregated data were from patches from n ≥ 2 different cells on different days. No relevant differences were observed between patches from different cells. In an effort to minimize variability associated with differences in resting membrane tension, we targeted patches with low basal curvature and low resting channel activity and ensured measured pressure difference across the patch was as close to zero as possible at rest to prevent mechanical activation of channels. Data were analyzed using Clampfit 10.7, Excel, and Graphpad Prism software. For voltage families, the data were decimated 100x and plotted in Prism. […]
To avoid cannabinoid absorption to plastic, cannabinoid solutions were made in glass vials and diluted by weight, perfusion was performed using glass tubing pulled from borosilicate glass Pasteur pipettes (Fisherbrand, Cat# 13–678-20C), and recordings were performed in glass chambers. Channel activity was continuously recorded during perfusion steps. […]
The effects of cannabinoids on channel activity were quantified by the reduction in channel current evoked at 0 mV during a gap-free recording or during 200 ms long voltage families with steps ranging from −100 to +100 mV. […]

The target in the next test is T2, TRAAKG165E (Homo sapiens, UniProt Q9NYG8, G139E).
T2 construct: The transcribed messages encode H. sapiens TRAAK amino acids 1–393; expressed in transfected cells; host or cells: Xenopus laevis oocytes, cRNA injection
T2 sequence (Q9NYG8 1-393 G139E): T1 sequence (Q9NYG8 1-393 G132D) with D132G, G139E
Description: Excised patch recording of TRAAK mutant G165E. The class given is biochemical. An excerpt:
For patch clamp recording from Xenopus oocytes, genes encoding full-length Homo sapiens TRAAK (UniProt Q9NYG8–2), TREK-1 (UniProt O95069), and TREK-2 (UniProt P57789) were codon optimized for eukaryotic expression, synthesized (Genewiz), and cloned into a modified pGEMHE vector using Xho1 and EcoR1 restriction sites. The transcribed messages encode H. sapiens TRAAK amino acids 1–393, TREK-1 amino acids 1–426, or TREK-2 amino acids 1–538 with an additional three amino acids (SNS) at the C terminus. TRAAK mutants were introduced by polymerase chain reaction (PCR). Linearized DNA was transcribed in vitro using T7 polymerase. […] Currents were recorded at 25 °C from inside-out patches excised from oocytes 1 to 5 d after RNA injection. […]
Patches were evaluated with voltage-step protocols to confirm TRAAK expression and minimal non-specific leak based on reversal potential. Currents were recorded using an Axopatch 200B amplifier (Molecular Devices) at a bandwidth of 1 kHz and digitized with an Digidata 1550B (Molecular Devices) at 100–500 kHz using pClamp10.7 software. […] In an effort to minimize variability associated with differences in resting membrane tension, we targeted patches with low basal curvature and low resting channel activity and ensured measured pressure difference across the patch was as close to zero as possible at rest to prevent mechanical activation of channels. […]

One may read the IC50 as the concentration needed to halve the response being measured. As usually defined, the EC50 is the concentration at which the effect is half-maximal. The low end stands for a more potent agent, the high end for a less potent agent. As usually defined, the inhibition is the drop in the measured response relative to a control, in per cent. As for `C=C(C)[C@@H]1CCC(C)=C[C@H]1c1c(O)cc(CCCCC)cc1O` [CBD, Cannabidiol], the 50% inhibitory concentration (IC50) in the test on GPR55 is around 500 nM; at TRAAKG158D it was 1030 ± 220 nM; on TRAAKG165E it was 162 ± 8 nM. For the same compound, the EC50 on TRAAKG158D amounted to 1030 ± 220 nM. Also, the “fold less sensitive than wild-type TRAAK” value on TRAAKG158D (G158D vs wild-type) is ~ 7.1 fold. For the same compound, the inhibition at 10 µM at TRAAKG158D (highest CBD concentration tested, 10 μM, read-out: inhibition plateauing at % of initial current) was around 45%.
